Test results: paper PMC9697519, “New Theonellapeptolides from Indonesian Marine Sponge Theonella swinhoei as Anti-Austerity Agents” (Marine Drugs, 2022)
Like-named read-outs stand apart in the source and are kept apart here. *1 amine or outer side, *2 acyl side, *3 side chain or, on linkers, in order; H or OH if unused. Where a SMILES comes first, the peptide text is derived from it. Bridges are numbered along the chain shown (N, C = ends). [ ]: non-standard residue; d: D form. The star is where a group is joined. dNMeaIle = CC[C@H](C)[C@@H](NC)C(=O)O; d(aIle) = CC[C@H](C)[C@@H](N)C(=O)O; NMeI = CC[C@H](C)[C@H](NC)C(=O)O; NMeβAla = CN(CCC(=O)[*:2])[*:1]; dNMeL = CN[C@H](CC(C)C)C(=O)O; dNMeV = CN[C@@H](C(=O)O)C(C)C; NMeV = CN[C@H](C(=O)O)C(C)C; Methoxyacetyl = COCC(=O)*; NMeA = CN[C@@H](C)C(=O)O; βAla = NCCC(=O)O

Key:
[1] = test system: human pancreatic cancer cell line MIA PaCa-2; conditions: 24 h
Method: Data are presented as preferential cytotoxicity (PC50) values, which represent the concentration that kills 50% of cancer cells in a nutrient-deprived medium (NDM) without any toxicity in a nutrient-rich medium DMEM (Dulbecco’s Modified Eagle Medium).
(§1) Briefly, MIA PaCa-2, HepG2 and MCF-7 Cells (2 × 10^4 cells/well) were seeded in 96-well plates and incubated in fresh DMEM. The cells were washed with Dulbecco’s phosphate-buffered saline (PBS) before the medium was replaced with DMEM or NDM containing serial dilutions of the test samples. After 24 h of incubation, the cells were washed with PBS, and 100 μL of DMEM containing 10% WST-8 cell counting kit solution was added to each well. After 3 h of incubation, the absorbance was measured at 450 nm. Cell viability was calculated from the mean values for three wells. The preferential cytotoxicity was expressed as the concentration at which 50% of cells died preferentially in NDM (PC50).
Pancreatic cancer cells (MIA PaCa-2 cells) were kindly provided by Dr. Suresh Awale, an Associate Professor at Institute of Natural Medicine, University Toyama, Toyama, Japan. MIA PaCa-2 (RBRC-RCB2094), human pancreatic cancer cell lines were purchased from Riken BRC cell bank.

[2] = test system: HepG2 (human liver cancer cells); conditions: 24 h
Method: (§2) Finally, the anti-austerity activity on two other different cancer cell lines was studied. Preferential cytotoxicity was assessed in a nutrient-deprived medium. Esumi et al. hypothesized that tolerance to nutrient deprivation as well as angiogenesis might be an important factor in tumor progression under hypovascular condition.
as §1

[3] = test system: MCF-7 (human breast cancer cells); conditions: 24 h
Method: as §2, §1

[4] = test system: Escherichia coli JW5503
Method: (§3) Previously, three theonellapeptolide members capped with a unique acyl group at their N-termini such as methylsulfinylacetyl, methylsulfanylacetyl, and acetyl were isolated by Tsuda et al. from Okinawan marine sponge Theonella sp.. Furthermore, the antibacterial activity of these variants was evaluated against four bacterial and six fungal strains. […] To the best of our knowledge, there is no report on the antibacterial activity of theonellapeptolides with methoxyacetyl group. This encouraged us to investigate the antibacterial activity of 1–6 against the Gram-negative bacterium Escherichia coli JW5503 and the Gram-positive bacteria Bacillus cereus NBRC 15305 and Kocuria rhizophila NBRC 12708.
(§4) After incubation for 22 h (30 °C), the obtained optical density was recorded using Tecan infinite® M200 plate reader at 600 nm to determine percent growth inhibition.

[5] = test system: Bacillus cereus NBRC 15305
Method: as §3, §4

[6] = test system: Kocuria rhizophila NBRC 12708
Method: as §3, §4

[7] = read-out: IC50 in DMEM, MIA PaCa-2, nutrient-rich DMEM, WST-8, absorbance 450 nm, mean of three wells
[8] = read-out: PC50 in NDM, MIA PaCa-2, preferential cytotoxicity, nutrient-deprived medium (NDM), WST-8, mean of three wells
[9] = read-out: IC50 in DMEM, HepG2, nutrient-rich DMEM, WST-8, absorbance 450 nm, mean of three wells
[10] = read-out: PC50 in NDM, HepG2, preferential cytotoxicity, nutrient-deprived medium (NDM), WST-8, mean of three wells
[11] = read-out: IC50 in DMEM, MCF7, nutrient-rich DMEM, WST-8, absorbance 450 nm, mean of three wells
[12] = read-out: PC50 in NDM, MCF7, preferential cytotoxicity, nutrient-deprived medium (NDM), WST-8, mean of three wells
[13] = Escherichia coli JW5503, 96-well microbroth dilution (CLSI), triplicate, 22 h, 30 °C, OD 600 nm
[14] = Bacillus cereus NBRC 15305, 96-well microbroth dilution (CLSI), triplicate, 22 h, 30 °C, OD 600 nm
[15] = Kocuria rhizophila NBRC 12708, 96-well microbroth dilution (CLSI), triplicate, 22 h, 30 °C, OD 600 nm

SMILES | IC50 [1, 7] [µM] | IC50 [1, 8] [µM] | IC50 [2, 9] [µM] | IC50 [2, 10] [µM] | IC50 [3, 11] [µM] | IC50 [3, 12] [µM] | MIC, EC ([4]; JW5503, 22 h) [µM] | MIC, BC ([5]; NBRC 15305, 22 h) [µM] | MIC, KR ([6]; NBRC 12708, 22 h) [µM] | MIC, EC [4, 13] [µM] | MIC, BC [5, 14] [µM] | MIC, KR [6, 15] [µM]
CC[C@H](C)[C@H]1C(=O)NCCC(=O)N[C@H]([C@@H](C)CC)C(=O)N(C)[C@@H](C(C)C)C(=O)N(C)[C@@H](C)C(=O)NCCC(=O)N[C@H](CC(C)C)C(=O)N(C)[C@H]([C@@H](C)CC)C(=O)O[C@H](C)[C@H](NC(=O)[C@@H](CC(C)C)N(C)C(=O)[C@@H](NC(=O)COC)C(C)C)C(=O)NCCC(=O)N[C@H](CC(C)C)C(=O)N1C [Compound 6, theonellapeptolide Id] (Methoxyacetyl-V[dNMeL]T[βAla][dL][NMeI][βAla][d(aIle)][NMeV][NMeA][βAla][dL][dNMeaIle]; ester 3-C) | 42.7 | 8.2 | > 100 | > 100 | > 100 | > 100 | > 66 | > 66 | > 66 |  |  | 
CC[C@H](C)[C@H]1C(=O)NCCC(=O)N[C@H]([C@@H](C)CC)C(=O)N(C)[C@@H](C(C)C)C(=O)N[C@@H](C)C(=O)NCCC(=O)N[C@H](CC(C)C)C(=O)N(C)[C@H]([C@@H](C)CC)C(=O)O[C@H](C)[C@H](NC(=O)[C@@H](CC(C)C)N(C)C(=O)[C@@H](NC(=O)COC)C(C)C)C(=O)N(C)CCC(=O)N[C@H](CC(C)C)C(=O)N1C [Compound 5, theonellapeptolide IIe] (Methoxyacetyl-V[dNMeL]T[NMeβAla][dL][NMeI][βAla][d(aIle)][NMeV]A[βAla][dL][dNMeaIle]; ester 3-C) | 40.4 | 3.5 | > 100 | > 100 | > 100 | > 100 | > 66 | > 66 | > 66 |  |  | 
CC[C@H](C)[C@H]1NC(=O)CCNC(=O)[C@@H](C(C)C)N(C)C(=O)[C@@H](CC(C)C)NC(=O)CCNC(=O)[C@@H](NC(=O)[C@@H](CC(C)C)N(C)C(=O)[C@@H](NC(=O)COC)C(C)C)[C@@H](C)OC(=O)[C@@H]([C@@H](C)CC)N(C)C(=O)[C@@H](CC(C)C)NC(=O)CCNC(=O)[C@H](C)NC(=O)[C@H](C(C)C)N(C)C1=O [Compound 1, theonellapeptolide IIb] (Methoxyacetyl-V[dNMeL]T[βAla][dL][dNMeV][βAla][d(aIle)][NMeV]A[βAla][dL][dNMeaIle]; ester 3-C) | > 100 | 42.8 | > 100 | > 100 | > 100 | > 100 |  | > 66 | > 66 | > 66 |  | 
CC[C@H](C)[C@H]1NC(=O)CCNC(=O)[C@@H](C(C)C)NC(=O)[C@@H](CC(C)C)NC(=O)CCNC(=O)[C@@H](NC(=O)[C@@H](CC(C)C)N(C)C(=O)[C@@H](NC(=O)COC)C(C)C)[C@@H](C)OC(=O)[C@@H]([C@@H](C)CC)N(C)C(=O)[C@@H](CC(C)C)NC(=O)CCNC(=O)[C@H](C)NC(=O)[C@H](C(C)C)N(C)C1=O [Compound 2, theonellapeptolide IIa] (Methoxyacetyl-V[dNMeL]T[βAla][dL][dV][βAla][d(aIle)][NMeV]A[βAla][dL][dNMeaIle]; ester 3-C) | > 100 | 33.4 | > 100 | > 100 | > 100 | > 100 |  |  |  | > 66 | > 66 | > 66
CC[C@H](C)[C@H]1NC(=O)CCNC(=O)[C@H](C(C)C)N(C)C(=O)[C@@H](CC(C)C)NC(=O)CCN(C)C(=O)[C@@H](NC(=O)[C@@H](CC(C)C)N(C)C(=O)[C@@H](NC(=O)COC)C(C)C)[C@@H](C)OC(=O)[C@@H]([C@@H](C)CC)N(C)C(=O)[C@@H](CC(C)C)NC(=O)CCNC(=O)[C@H](C)NC(=O)[C@H](C(C)C)N(C)C1=O [Compound 3, theonellapeptolide IIc] (Methoxyacetyl-V[dNMeL]T[NMeβAla][dL][NMeV][βAla][d(aIle)][NMeV]A[βAla][dL][dNMeaIle]; ester 3-C) | 73.2 | 10 | > 100 | > 100 | > 100 | > 100 |  |  |  | > 66 | > 66 | > 66
